ChEMBL document CHEMBL1201862, “PubChem BioAssay data set” (2004)
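Compound exposure: 48 hours, 5 concentrations, 96-well plates. GI50: concentration for 50% inhibition of growth.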 Activity calls are given as the source filed them. Rule as the data show it: active = GI50 up to about 1.1 µM and inactive = higher.

What was measured:
Test in all cases: inhibition of tumour cell growth, NCI panel, 48 h
786-0 = system: 786-0
A498 = system: A498
A549 = system: A549
ACHN = system: ACHN
CAKI-1 = system: CAKI-1
CCRF-CEM = system: CCRF-CEM
COLO 205 = system: COLO 205
DLD-1 = system: DLD-1
DMS-114 = system: DMS-114
DMS-273 = system: DMS-273
EKVX = system: EKVX
HCC 2998 = system: HCC 2998
HCT-116 = system: HCT-116
HCT-15 = system: HCT-15
HOP-18 = system: HOP-18
HOP-62 = system: HOP-62
HOP-92 = system: HOP-92
HT-29 = system: HT-29
IGROV-1 = system: IGROV-1
K562 = system: K562
KM-20L2 = system: KM-20L2
KM12 = system: KM12
LOX IMVI = system: LOX IMVI
LXFL 529 = system: LXFL 529
M14 = system: M14
M19-MEL = system: M19-MEL
MOLT-4 = system: MOLT-4
NCI-H226 = system: NCI-H226
NCI-H23 = system: NCI-H23
NCI-H460 = system: NCI-H460
OVCAR-3 = system: OVCAR-3
OVCAR-4 = system: OVCAR-4
OVCAR-5 = system: OVCAR-5
OVCAR-8 = system: OVCAR-8
RPMI-8226 = system: RPMI-8226
RXF 393 = system: RXF 393
SF-268 = system: SF-268
SF-295 = system: SF-295
SF-539 = system: SF-539
SK-MEL-28 = system: SK-MEL-28
SK-MEL-2 = system: SK-MEL-2
SK-MEL-5 = system: SK-MEL-5
SK-OV-3 = system: SK-OV-3
SN12C = system: SN12C
SNB-19 = system: SNB-19
SNB-75 = system: SNB-75
SNB-78 = system: SNB-78
SR = system: SR
SW-620 = system: SW-620
TK-10 = system: TK-10
U-251 = system: U-251
UACC-257 = system: UACC-257
UACC-62 = system: UACC-62
UO-31 = system: UO-31
XF498 = system: XF498
BT-549 = system: BT-549
DU-145 = system: DU-145
HL-60 = system: HL-60
Hs-578T = system: Hs-578T
MCF7 = system: MCF7
MDA-MB-231 = system: MDA-MB-231
MDA-MB-435 = system: MDA-MB-435
MDA-N = system: MDA-N
Malme-3M = system: Malme-3M
NCI-H522 = system: NCI-H522
NCI/ADR-RES = system: NCI/ADR-RES
PC-3 = system: PC-3
T47D = system: T47D

O=c1[nH]cnc2c1nnn2C1C=C(CO)C(O)C1O (stereo unspecified)
GI50 (786-0): > 100 µM (inactive)
GI50 (A498): > 100 µM (inactive)
GI50 (A549): > 100 µM (inactive)
GI50 (ACHN): > 100 µM (inactive)
GI50 (CAKI-1): > 100 µM (inactive)
GI50 (CCRF-CEM): > 100 µM (inactive)
GI50 (COLO 205): > 100 µM (inactive)
GI50 (DLD-1): > 100 µM (inactive)
GI50 (DMS-114): 59.2 µM (inactive)
GI50 (DMS-273): 23.5 µM (inactive)
GI50 (EKVX): > 100 µM (inactive)
GI50 (HCC 2998): > 100 µM (inactive)
GI50 (HCT-116): 53.7 µM (inactive)
GI50 (HCT-15): > 100 µM
GI50 (HOP-18): > 100 µM (inactive)
GI50 (HOP-62): > 100 µM (inactive)
GI50 (HOP-92): > 100 µM (inactive)
GI50 (HT-29): > 100 µM (inactive)
GI50 (IGROV-1): > 100 µM (inactive)
GI50 (K562): > 100 µM (inactive)
GI50 (KM-20L2): > 100 µM (inactive)
GI50 (KM12): > 100 µM (inactive)
GI50 (LOX IMVI): 30.8 µM (inactive)
GI50 (LXFL 529): > 100 µM (inactive)
GI50 (M14): > 100 µM (inactive)
GI50 (M19-MEL): > 100 µM (inactive)
GI50 (MOLT-4): > 100 µM (inactive)
GI50 (NCI-H226): > 100 µM (inactive)
GI50 (NCI-H23): > 100 µM (inactive)
GI50 (NCI-H460): > 100 µM (inactive)
GI50 (OVCAR-3): > 100 µM (inactive)
GI50 (OVCAR-4): > 100 µM (inactive)
GI50 (OVCAR-5): > 100 µM (inactive)
GI50 (OVCAR-8): > 100 µM (inactive)
GI50 (RPMI-8226): > 100 µM (inactive)
GI50 (RXF 393): > 100 µM (inactive)
GI50 (SF-268): 74.1 µM (inactive)
GI50 (SF-295): > 100 µM (inactive)
GI50 (SF-539): > 100 µM (inactive)
GI50 (SK-MEL-28): > 100 µM (inactive)
GI50 (SK-MEL-2): > 100 µM (inactive)
GI50 (SK-MEL-5): > 100 µM (inactive)
GI50 (SK-OV-3): > 100 µM (inactive)
GI50 (SN12C): > 100 µM (inactive)
GI50 (SNB-19): > 100 µM (inactive)
GI50 (SNB-75): > 100 µM (inactive)
GI50 (SNB-78): > 100 µM (inactive)
GI50 (SR): > 100 µM (inactive)
GI50 (SW-620): > 10 µM (inactive)
GI50 (TK-10): > 100 µM (inactive)
GI50 (U-251): > 100 µM (inactive)
GI50 (UACC-257): > 100 µM (inactive)
GI50 (UACC-62): > 100 µM (inactive)
GI50 (UO-31): > 100 µM (inactive)
GI50 (XF498): > 100 µM (inactive)

CC1=C2C(=CO[C@H](C)[C@H]2C)C(O)=C(C(=O)O)C1=O [CITRININ]
GI50 (786-0): 24.5 µM (inactive)
GI50 (A498): 0.782 µM (active)
GI50 (A549): 70.5 µM (inactive)
GI50 (ACHN): 21 µM (inactive)
GI50 (BT-549): 13.3 µM (inactive)
GI50 (CAKI-1): 27.3 µM (inactive)
GI50 (CCRF-CEM): 14.8 µM (inactive)
GI50 (COLO 205): 33.9 µM (inactive)
GI50 (DLD-1): 18.2 µM (inactive)
GI50 (DMS-114): 11.5 µM (inactive)
GI50 (DMS-273): 44 µM (inactive)
GI50 (DU-145): 24.2 µM (inactive)
GI50 (EKVX): 18.7 µM (inactive)
GI50 (HCC 2998): 19.1 µM (inactive)
GI50 (HCT-116): 25.8 µM (inactive)
GI50 (HCT-15): 16.9 µM
GI50 (HL-60): 11.1 µM (inactive)
GI50 (HOP-18): 15.2 µM (inactive)
GI50 (HOP-62): 17.1 µM (inactive)
GI50 (HOP-92): 25.1 µM (inactive)
GI50 (HT-29): 33.9 µM (inactive)
GI50 (Hs-578T): 27.5 µM (inactive)
GI50 (IGROV-1): 18.6 µM (inactive)
GI50 (K562): 15.3 µM (inactive)
GI50 (KM-20L2): 23.8 µM (inactive)
GI50 (KM12): 26.9 µM (inactive)
GI50 (LOX IMVI): 16.3 µM (inactive)
GI50 (M14): 23 µM (inactive)
GI50 (M19-MEL): 24.5 µM (inactive)
GI50 (MCF7): 15.7 µM (inactive)
GI50 (MDA-MB-231): 23.2 µM (inactive)
GI50 (MDA-MB-435): 27 µM (inactive)
GI50 (MDA-N): 26.2 µM (inactive)
GI50 (MOLT-4): 13.1 µM (inactive)
GI50 (Malme-3M): 50.1 µM (inactive)
GI50 (NCI-H226): 23.3 µM (inactive)
GI50 (NCI-H23): 20.5 µM (inactive)
GI50 (NCI-H522): 12.4 µM (inactive)
GI50 (NCI/ADR-RES): 43.8 µM (inactive)
GI50 (OVCAR-3): 16.7 µM (inactive)
GI50 (OVCAR-4): 32.9 µM (inactive)
GI50 (OVCAR-5): 59.8 µM (inactive)
GI50 (OVCAR-8): 13.2 µM (inactive)
GI50 (PC-3): 32 µM (inactive)
GI50 (RPMI-8226): 15.8 µM (inactive)
GI50 (RXF 393): 13.2 µM (inactive)
GI50 (SF-268): 7 µM (inactive)
GI50 (SF-295): 35.8 µM (inactive)
GI50 (SF-539): 12.3 µM (inactive)
GI50 (SK-MEL-28): 31.8 µM (inactive)
GI50 (SK-MEL-2): 16.3 µM (inactive)
GI50 (SK-MEL-5): 12.8 µM (inactive)
GI50 (SK-OV-3): 71.8 µM (inactive)
GI50 (SN12C): 21.7 µM (inactive)
GI50 (SNB-19): 21.9 µM (inactive)
GI50 (SNB-75): 32.6 µM (inactive)
GI50 (SNB-78): 11.2 µM (inactive)
GI50 (SR): 15.6 µM (inactive)
GI50 (SW-620): 20.6 µM (inactive)
GI50 (T47D): 29.2 µM (inactive)
GI50 (TK-10): 24.5 µM (inactive)
GI50 (U-251): 14.6 µM (inactive)
GI50 (UACC-257): 29.7 µM (inactive)
GI50 (UACC-62): 20.3 µM (inactive)
GI50 (UO-31): 48.3 µM (inactive)
GI50 (XF498): 5.55 µM (inactive)
